Experimental data: patent US7786097B2, “Tricyclic compounds, compositions and methods” (Pfizer Inc., priority 2007, dated 2010)

Key:
[1] = test system: TNFα production in human whole blood; assay: Ex vivo LPS-stimulated human whole blood, TNFα; assay type: cell-based; conditions: LPS 100 ng/ml, 22 hours, mean of two donors
Protocol: Venous blood from human donors was collected as 10 ml aliquots in tubes containing sodium heparin (BD Vacutainer from Becton Dickinson and Company, Franklin Lakes, N.Y.). Blood was added to sterile polystyrene round bottom 96-well tissue culture plates (Corning Costar) at 100 μl/well, omitting the outside wells. Media (RPMI Medium 1640 with L-glutamine, Invitrogen Corporation, Carlsbad, Calif.) was added to the blood in 90 μl aliquots for a total volume of 190 μl. Outside wells were filled with 200 μl of media. Blood was placed in a humidified 37° C. incubator with 5% CO2 while compounds were prepared (nearly 60 minutes).
Compounds were prepared from 10 mM stock solutions in dimethylsulfoxide (DMSO, Sigma-Aldrich). […] Final DMSO and ethanol concentrations in the assay were 0.1% and 1.5%. The samples were gently triturated twice to mix and replaced in the incubator. LPS stock (E. coli serotype 0111:B4, Sigma-Aldrich), stored in aliquots of 100 μg/ml in RPMI at −20° C., was diluted 1/50 in RPMI to make a working stock solution. After 60 minutes of incubation, 10 μl of the prepared LPS working stock was added to the blood to a final concentration of 100 ng/ml, omitting wells to be used as negative control. The samples were again gently triturated and the plates incubated overnight for 22 hours. Following incubation, the blood was centrifuged at 1500×g for 5 minutes and the plasma removed to either freeze at −20° C. or assay for cytokine release.
IL-1β, IFNγ, IL-6, and TNFα protein levels were measured using Meso Scale assay kits (Meso Scale Discovery, Gaithersburg, Md.). Reagents were allowed to come to room temperature. Meso Scale plates were blocked with 30 μl of human plasma/serum assay diluent with gentle shaking for 60 minutes at room temperature. Plates were washed 3× with wash buffer (PBS, Invitrogen Corporation, with 0.05% Tween-20, Sigma-Aldrich). Calibrators for standard curves were prepared in human plasma/serum assay diluent as a […] serial dilution to achieve final concentrations ranging from 50000 pg/ml to 3.2 pg/ml. Samples and calibrators were added at 20 μl/well, then incubated at room temperature with gentle shaking for 90 minutes. Plates were again washed 3 times with wash buffer. Detection antibody was diluted in human plasma/serum antibody diluent to 1 μg/ml and added to the plate at 20 μl/well. Plates were incubated as before for 60 minutes and washed again. Read Buffer T<4×) was diluted 1:1 with mqH2O to 2 times concentration and 150 μl added to each well. Plates were analyzed on the SECTOR Imager 6000 (Meso Scale Discovery) to generate raw signal values.
IL-1β, IFN-γ, IL-6, and TNFα sample values were verified to be within the calibrator standard curves. Individual values were compared to positive and negative controls (vehicle treated blood with LPS and vehicle treated blood without LPS, respectively) to generate % inhibition. Triplicate values were averaged for each donor. The values for two donors were averaged (only one donor was used for IL-1β) and graphed using 4-parameter fit curves in the GraFit 5.0.11 application.

Serum osteocalcin = Serum osteocalcin suppression, 28-day repeat dose mouse model; assay type: in vivo, Swiss Webster female mice; conditions: mice
Protocol: (§1) The compounds were weighed and suspended in a vehicle of 0.5% methylcellulose/0.025% tween 20 (Sigma-Aldrich, St. Louis, Mo.). Compound suspensions were homogenized using a Polytron PT-3100 tissue homogenizer to create a very fine suspension and were then sonicated for 10 minutes using a water bath sonicator. Aliquots of each suspension were made for daily dosing at 0.2 ml/dose. Swiss Webster female mice, 10-12 weeks old, 28-29 grams, (Taconic, Germantown, N.Y.) were used in accordance with the guidelines of the Institutional Animal Care and Use Committee and in accordance with NIH guidelines on laboratory animal welfare. Mice were acclimated in the Pfizer animal facility for three to seven days prior to being utilized in a study. […] Each treatment group contained 5-10 mice. To establish a dosing regimen for the studies, a pilot pharmacodynamic time course experiment was conducted to quantify TNFα repression after a single ED80 dose.
(§2) Body weights were measured on the first and last day of each experiment. Blood samples were obtained after three weeks of dosing for a steady-state pharmacokinetic (PK) analysis. To assess compound effects on LPS-induced TNFα, all mice received an intraperitoneal injection of LPS (Salmonella typhosa, L-7895; Sigma-Aldrich, St. Louis) 2.5 hr after the last dose on day 28. Mice were sacrificed 90 minutes after LPS administration. Serum samples were quantified for osteocalcin and TNFα using the multiplex assays (Linco Research, Inc, St. Charles, Mo.; Luminex 100, Austin, Tex.). Samples were diluted 1:20 and the assay was run according to manufacturer's instructions. The osteocalcin standard was purchased separately (Biomedical Technologies Inc., Stoughton, Mass.). Mice were fasted for 4 hours before serum was collected for TNFα, and osteocalcin levels. For each experiment, outliers were detected by calculating the number of standard deviations from the mean of the group. If the value being examined was more than 2.5 standard deviations from the mean, it was excluded from the rest of the calculations.
(§3) The individual mouse percent inhibition values were fit to a four-parameter logistic model using the dose mean for each group.
(§4) ED50 and ED80 values were obtained for the various endpoints using a four-parameter logistic fit. For compounds which were tested multiple times, ED50 and ED80 values were obtained using four-parameter logistic fits of the combined data from multiple experiments.

LPS-induced serum TNFα = LPS-induced serum TNFα suppression, 28-day repeat dose mouse model; assay type: in vivo, Swiss Webster female mice; conditions: mice, oral gavage 28 days
Protocol: as §1, §2, §3, §4

`C[C@]12C=CC(=O)C=C1CC[C@@H]1[C@@H]2[C@@H](O)C[C@@]2(C)[C@H]1CC[C@]2(O)C(=O)CO` [Prednisolone] gave an inhibition at 0.00137174 µM ([1]; 1.371742 nM) of 6.61%, an inhibition at 0.00411523 µM ([1]; 4.115226 nM) of 5.31% and an inhibition at 0.0123457 µM ([1]; 12.34568 nM) of 12.9%. It also gave an inhibition at 0.037037 µM ([1]; 37.03704 nM) of 27.7%, an inhibition at 0.111111 µM ([1]; 111.1111 nM) of 62.4% and an inhibition at 0.333333 µM ([1]; 333.3333 nM) of 89%. The inhibition at 1 µM ([1]; 1000 nM) was 93.9%, the “Serum osteocalcin EAUC50” value (Serum osteocalcin; AUC 0-4 hr) was 560 ng·h/mL and the “Serum osteocalcin EAUC80” value (Serum osteocalcin; AUC 0-4 hr) was 1600 ng·h/mL. The “Osteocalcin Suppression (ED80 dose)” value (Serum osteocalcin; oral gavage 28 days, serum osteocalcin) was 6.80 mg/kg and the “TNFα Suppression (ED80 dose)” value (LPS-induced serum TNFα) was 2.10 mg/kg.
